The subject of test [1] is Human Endometrial Ishikawa Cells. The test is described as follows: Alkaline Phosphatase Assay in Human Endometrial Ishikawa Cells. It counts as cell-based. The conditions noted are these: Homo sapiens, Ishikawa, 72 h, alkaline phosphatase activity, 3 days; for EC50: agonist mode, read-out: Ishikawa Agonist EC50; for IC50: antagonist mode, 10 nM 17β-estradiol added, read-out: Ishikawa Antagonist IC50. Here is the method:
Alkaline Phosphatase Assay in Human Endometrial Ishikawa Cells
This assay was run according to the procedure described by Albert et a., Cancer Res, […], 50(11), 330-6-10, with minor modification.
Ishikawa cells (from ATCC) were maintained in DMEM/F12 (1:1) phenol red free medium (Gibco) supplemented with 10% calf serum (Hyclone). 24 hours prior to testing, the medium was changed to DMEM/F12 (1:1) phenol red free containing 2% calf serum.
Compounds to be tested in the agonist mode were added to the culture media at varying concentrations. Compounds to be treated in the antagonist mode were prepared similarly, and 10 nM 17β-estradiol was also added to the culture media. The cells were then incubated at 37° C. for 3 days. On the fourth day, the media was remove, 1 volume of 1× Dilution Buffer (Clontech) was added to the well followed by addition of 1 volume of Assay Buffer (Clontech). The cells were then incubated at room temperature for 5 minutes. 1 volume of freshly prepared Chemiluminescence Buffer (1 volume of chemiluminescent substrate (CSPD) in 19 volume Chemiluminescent Enhancer with final concentration of CSPD at 1.25 mM; Sigma Chemical Co.) was added. The cells were incubated at room temperature for 10 minutes and then quantified on a luminometer. The increase of chemiluminescence over vehicle control was used to calculate the increase in alkaline phosphatase activity.
(§1) Representative compound of the present invention were tested according to the procedure described in Examples 14 and 15 above, with results as listed in Table. 7.

The next test relates to MCF-7 cells. The test is described as follows: MCF-7 Cell Proliferation Assay. The conditions noted are these: Homo sapiens, MCF7, 14C-thymidine incorporation; for EC50: agonist mode, read-out: MCF7 Agonist EC50; for IC50: antagonist mode, 10 nM 17β-estradiol added, read-out: MCF7 Antagonist IC50. The class given is cell-based. As to the method:
MCF-7 Cell Proliferation Assay
This assay was run according to the procedure described by Welshons, et al., (Breast Cancer Res. Treat., 1987, 10(2), 169–75), with minor modification.
Briefly, MCF-7 cells (from Dr. C. Jordan, Northwestern University) were maintained in RPMI 1640 phenol red free medium (Gibco) in 10% FBS (Hyclone), supplemented with bovine insulin and non-essential amino acid (Sigma). The cells were initially treated with 4-hydroxytamoxifen (10^−8 M) and let stand at 37° C. for 24 hours. Following this incubation with tamoxifen, the cells were treated with compounds at various concentrations.
Compounds to be tested in the agonist mode were added to the culture media at varying concentrations. Compounds to be treated in the antagonist mode were prepared similarly, and 10 nM 17β-estradiol was also added to the culture media. The cells were incubated for 24 hours at 37° C. Following this incubation, 0.1 μCi of ^14C-thymidine (56mCi/mmol, Amersham) was added to the culture media and the cells were incubated for an additional 24 hours at 37° C. The cells were then washed twice with Hank's buffered salt solution (HBSS) (Gibco) and counted with a scintillation counter. The increase in the ^14C-thymidine in the compound treated cells relative to the vehicle control cells were reported as percent increase in cell proliferation.
as §1

For test [2], the target named is T1, human estrogen receptor α (Homo sapiens, UniProt P03372).
T1 construct: purchased Panvera
T1 sequence (P03372 1-595): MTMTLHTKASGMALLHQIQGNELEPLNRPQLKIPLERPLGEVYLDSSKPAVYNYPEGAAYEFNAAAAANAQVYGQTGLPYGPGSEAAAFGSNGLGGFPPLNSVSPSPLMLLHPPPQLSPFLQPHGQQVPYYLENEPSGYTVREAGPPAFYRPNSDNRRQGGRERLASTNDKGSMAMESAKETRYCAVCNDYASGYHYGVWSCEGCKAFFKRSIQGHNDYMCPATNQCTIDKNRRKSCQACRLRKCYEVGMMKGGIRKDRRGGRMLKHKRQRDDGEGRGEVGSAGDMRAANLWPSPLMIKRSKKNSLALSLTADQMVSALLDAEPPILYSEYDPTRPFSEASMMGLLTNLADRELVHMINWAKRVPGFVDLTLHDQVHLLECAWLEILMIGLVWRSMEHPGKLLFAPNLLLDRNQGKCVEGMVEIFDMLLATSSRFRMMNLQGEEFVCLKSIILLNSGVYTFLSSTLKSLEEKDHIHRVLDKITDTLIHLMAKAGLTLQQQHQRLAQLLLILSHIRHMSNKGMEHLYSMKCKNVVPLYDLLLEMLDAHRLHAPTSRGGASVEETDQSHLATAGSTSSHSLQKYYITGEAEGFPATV
The test is described as follows: Estrogen Receptor α Flash Plate Assay. Conditions: displacement of radio-labeled estrogen, FlashPlate; read-out: ERα Binding IC50. Here is the method: Estrogen Receptor α Flash Plate Assay
This assay monitors binding of radio-labeled estrogen to the estrogen receptor. It is performed on a BioMek 2000 (Beckman). Plates are read in a scintillation counter (Packard TopCount), with decreased counts an indication of binding of a compound to the receptor. The assay was run according to the procedure described by Allan, et al., Anal. Biochem. (1999), 275(2), 243–247.
On day one, 100 μL of Estrogen Screening Buffer (ESB, Panvera) containing 5 mM dithiothreitol (DTT, Panvera), 0.5 μg mouse anti-estrogen receptor monoclonal antibody (SRA-1010, Stressgen) and 50 ng purified human estrogen receptor α (Panvera) were added to each well of a 96 well FlashPlate Plus plate crosslinked with goat anti-mouse antibodies (NEN Life Sciences). The plate was sealed and incubated at 4° C. overnight.
On day two, each well was washed three times with 200 μL PBS, pH 7.2, at room temperature. To each well was then added 98 μL radio-labeled estrogen (0.5 nM, which equals 6 nCi for a 120 Ci/mmol batch, Amersham), diluted in ESB and 5 mM dithiothreitol (DTT). To individual wells were then added 2.5 μL test compound diluted in 30% (v/v) dimethyl sulfoxide/50 mM HEPES, pH 7.5. The wells were mixed three times by aspiration, the plate sealed and incubated at room temperature for one hour. The wells were then counted for 1 min in a TopCount scintillation counter (Packard).
(§2) Representative compound of the present invention were tested according to the procedure described above for binding to the Estrogen Receptor α and Estrogen Receptor β, with results as listed in Table 6.

The target of the next test is T2, hER-β (Homo sapiens, UniProt Q92731).
T2 construct: purchased Panvera
Nature of the test: Estrogen Receptor β Fluorescence Polarization Assay. Conditions: displacement of Fluormone ES2, fluorescence polarization; read-out: ERβ Binding IC50.
Excerpt: Estrogen Receptor β Fluorescence Polarization Assay
This assay monitors binding of a fluorescent analog of estrogen (Fluormone ES2, Panvera) to the estrogen receptor. Plates are read in a fluorometer that can be set to polarization mode. A decrease in […] relative to vehicle control is an indication of binding of a compound to the receptor.
It is crucial to avoid introduction of air bubbles into the reaction in each well of the 96 well plate throughout this procedure. (Bubbles on the surface of the reaction disrupt light flow, affecting the polarization reading.) However, it is also crucial to effectively mix the reaction components upon addition to the well.
On ice, a 2× standard mixture of Assay Buffer (Panvera), 10 nM DTT and 40 nM ES2 was prepared. On ice, a 2× reaction mixture of Assay Buffer (Panvera), and 20 nM hER-β (Panvera) and 40 nM ES2 was also prepared.
Dilutions of test compound were prepared in 30% (v/v) dimethyl sulfoxide/50 mM HEPES, pH 7.5. At this point, the dilutions were 40× the final required concentration.
The standard mixture at 50 μL was then added to each well. The reaction mixture at 48 μL was added to all wells. The compound dilution at 2.5 μL was added to the appropriate wells. The reaction mixtures were mixed using a manual pipette, a roll of aluminum foil adhesive cover was placed on the plate and the plate incubated at room temperature for 1 hour.
Each well on the plate was then read in an LjL Analyst with an excitation wavelength of […] and an emission wavelength of 538.
as §2
(In general: In fluorescence polarisation assays a small probe gives low polarisation when free and higher when bound to something large.)

Molecules are shown by their SMILES.

T2 sequence (Q92731 whole entry): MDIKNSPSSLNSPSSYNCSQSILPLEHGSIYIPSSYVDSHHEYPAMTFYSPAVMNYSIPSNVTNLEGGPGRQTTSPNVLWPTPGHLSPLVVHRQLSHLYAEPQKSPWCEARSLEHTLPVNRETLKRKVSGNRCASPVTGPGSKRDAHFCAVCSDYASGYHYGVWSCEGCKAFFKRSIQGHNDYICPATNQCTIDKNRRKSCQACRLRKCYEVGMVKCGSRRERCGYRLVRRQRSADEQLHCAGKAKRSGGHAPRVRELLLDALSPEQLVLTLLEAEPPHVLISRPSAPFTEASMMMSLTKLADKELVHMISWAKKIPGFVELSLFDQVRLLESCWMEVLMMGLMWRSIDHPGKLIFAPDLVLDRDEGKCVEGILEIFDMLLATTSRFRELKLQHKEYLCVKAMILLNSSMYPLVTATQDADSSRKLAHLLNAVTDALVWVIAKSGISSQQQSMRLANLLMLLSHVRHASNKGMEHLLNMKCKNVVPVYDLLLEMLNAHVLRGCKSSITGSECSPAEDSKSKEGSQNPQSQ

`CC1(CO)CCC(c2ccc(O)cc2)=C(c2ccc(O)cc2)C1` (stereo not drawn) [Compound 27, (1-methyl-3,4-di(4-hydroxy-phenyl)-cyclohex-3-enyl)-methanol]: the EC50 (in test [1]; with MCF-7 cells) was more than 10 µM throughout. For the same compound, the IC50 in test [1] was more than 10 µM; in the test with MCF-7 cells, more than 10 µM; in test [2], 0.5 µM; on hER-β, 1.5 µM.
On to `COc1ccc(C2=C(c3ccc(OC)cc3)CC3C(CC[C@@H]3O)C2)cc1` (stereo partly drawn) [Compound 61, 5,6-Bis-(4-methoxy-phenyl)-2,3,3a,4,7,7a-hexahydro-1H-inden-1S-ol], for which the EC50 (in test [1]; with MCF-7 cells) was more than 10 µM each time. Further, the IC50 in test [1] is more than 10 µM; with MCF-7 cells, more than 10 µM; in test [2], 8.7 µM; at hER-β it was 2 µM.

In general, EC50 refers to the concentration giving half of the maximal effect. The IC50 is the midpoint of a concentration-inhibition curve.
